Measured values as given in patent publication US8735444B2, “Fluorinated rhodamines as photostable fluorescent dyes for labelling and imaging techniques” (Max-Planck-Gesellschaft zur Foerderung der Wissenschaften …, priority 2009, dated 2014).
Read-outs that look alike come from different tables or passages of the source. Marks after values point to notes of the source that are not given here.

Columns and labels:
[1] = Spectral properties of the fluorinated rhodamines (absorption, emission, quantum yield, lifetime); type: physicochemical
From the text: Extinction coefficients (of the long wavelength maximum) which are lower than ca. 8×10^4 M^−1 cm^−1 indicate the presence of the closed non-fluorescent form.

[2] = system: living mammalian cells (PtK2); assay: Membrane-permeation experiments in living cells, epifluorescence microscope; type: cell-based; settings: for Structures stained in living cells: 15 minutes
Procedure: FIG. 9. Membrane-permeation experiments of the presented dyes. Living mammalian cells (PtK2) were incubated for 15 minutes with a 50 μg dye/ml solution. The subcellular localization of the dye was imaged in an epifluorescence microscope. A: 46-H—CH2 CF3—H—H (16); B: 42-COOH (15); C: 23; D: 37-Me-Me-H (27); E: 42-H (14)-methylester; F: 33-H—H (18).
The most important prerequisite for fluorophores used in these labeling strategies is that sufficient amounts of it need to pass cellular membrane(s) to reach the target protein. In order to asses the permeability of the cell membrane to the fluorescent dyes described in the presented invention, living mammalian cells (PtK2) previously grown overnight on cover slips, were first subjected to either 500 μg dye/ml or 50 μg dye/ml in growth medium for 15 minutes. (The amount of dye used for labeling of SNAP-fusion proteins is below 5 μg dye/ml.) Then, the cells were washed with growth medium (without dye) for 15 minutes, and imaged using an epifluorescence microscope.

[3] = set-up: ε × 10^−4: unit not given beside the values; settings: cited from earlier work
[4] = a + b (aqueous buffer at pH 7 + methanol)
[5] = adding methanol to an aqueous buffer
[6] = value for the closed form, methanol
[7] = solvent not stated, spectra pH-dependent at pH < 5

Compound | ABSORPTION λMAX ([1]; aqueous buffer at pH 7) | EMISSION λMAX ([1]; aqueous buffer at pH 7) | EMISSION λMAX ([1]; methanol) | Structures stained in living cells ([2]; 500 μg dye/ml) | ΦFL ([1]; aqueous buffer at pH 7) | τFL ([1]; aqueous buffer at pH 7) | ABSORPTION ε ([1]; methanol) | ABSORPTION λMAX ([1]; methanol) | also measured
2,7-Difluoro-5′(6′)-methoxycarbonyl-N,N,N′,N′-tetramethyl-rhodamine [Compound 28] | 525 nm | 554 nm | 589 nm | Red cytoplasmatic and mitochondrial | – | – | – | – | ABSORPTION λMAX [1, 4]: 558 nm; bathochromic shift in absorption maximum [1, 5]: 23 nm; bathochromic shift in emission maximum [1, 5]: 35 nm; ABSORPTION ε ([1]; aqueous buffer at pH 7): 31000 M⁻¹ cm⁻¹
Nc1cc2c(cc1Cl)C1(OC(=O)c3ccccc31)c1cc(Cl)c(N)cc1O2 [Compound 5] | – | – | – | – | – | – | – | – | shift of the absorption and emission curves to the red ([3]; compared with compounds 1, 3 and 4): ca. 10 nm; ε × 10^−4 ([3]; water, pH = 7): 7.1; λem ([3]; water, pH = 7): 525 nm; λmax ([3]; water, pH = 7): 502 nm
CN(CC(F)(F)F)c1cc2c(cc1F)C1(OC(=O)c3ccccc31)c1cc(F)c(N(C)CC(F)(F)F)cc1O2 [Compound 25, 2,7-Difluoro-N,N-dimethyl-N,N-bis(2,2,2-trifluoromethyl)-rhodamine] | – | – | – | Only dim stain visible. | – | – | – | – | fluorescence efficiency of the open acidic form ([1]; acidic solutions): relatively low fluorescence efficiency; ΦFL ([1]; measured at pH 1): (0.20)^1; τFL ([1]; measured at pH 1): (1.2)^1 ns; ABSORPTION ε ([1]; measured at pH 1, aqueous): (3.2)^1a (M^−1 cm^−1) × 10^−4; ABSORPTION λMAX ([1]; measured at pH 1, aqueous): 528 nm; EMISSION λMAX ([1]; measured at pH 1, aqueous): (557)^1a nm; colour of solutions ([1]; methanol, water and neutral buffers): colorless solutions; ABSORPTION λMAX [1, 6]: 300 nm
N,N-Bis(2,2,2-trifluoroethyl)rhodamine [Compound 14] | 499^a nm | 522^ nm | – | Nearly no stain visible. | 0.88 | 3.9 ns | – | – | ABSORPTION ε ([1]; aqueous buffer at pH 7): 81000 M⁻¹ cm⁻¹
O=C1OC2(c3cc(F)c(NCC(F)(F)F)cc3Oc3cc(NCC(F)(F)F)c(F)cc32)c2ccccc21 [Compound 18, 2,7-Difluoro-N,N′-bis(2,2,2-trifluoroethyl)rhodamine] | 494 nm | 521 nm | 519 nm | – | 1.00 | 3.8 ns | 41000 M⁻¹ cm⁻¹ | 500 nm | ABSORPTION λMAX [1, 6]: (292)^2b nm; Structures stained in living cells ([2]; 50 μg dye/ml): Dim cytoplasmatic stain with bright
5′ (6′)-Carboxy-2,7-difluoro-N,N′-dimethyl-N,N-bis(2,2,2-trifluoroethyl)rhodamine [Compound 26] | – | – | – | Cellular stain visible; bright | – | – | – | – | ABSORPTION λMAX [1, 4]: 523 nm; ABSORPTION λMAX [1, 6]: 291 nm
Nc1cc2c(cc1F)C1(OC(=O)c3ccccc31)c1cc(F)c(N)cc1O2 [Compound 10, 2,7-Difluororhodamine] | 494 nm | 520 nm | 522 nm | High background staining visible. | 0.87 | 3.9 ns | 41000 M⁻¹ cm⁻¹ | 498 nm | –
CN(C)c1cc2c(cc1F)C1(OC(=O)c3ccccc31)c1cc(F)c(N(C)C)cc1O2 [Compound 27, 2,7-Difluoro-N,N,N′,N′-tetramethylrhodamine] | 554 nm | 586 nm | 576 nm | Red cytoplasmatic and mitochondrial | 0.02 | 3.3 ns | – | 546 nm | fluorescence in aqueous buffer ([1]; aqueous buffer): nearly non-fluorescent; ABSORPTION ε ([1]; aqueous buffer at pH 7): 50000 M⁻¹ cm⁻¹; fluorescence signal inside the living cells ([2]; compared with aqueous buffer, Example 12, FIG. 9D): considerably stronger
5′(6′)-Carboxy-2,7-difluororhodamine [Compound 11] | 496 nm | 522 nm | 523 nm | Dye exclusion! No dye within cell | 0.92 | 4.0 ns | 50000 M⁻¹ cm⁻¹ | 498 nm | –
5′ (6′)-carboxy-2,7-difluoro-N,N′-bis(2,2,2-trifluoroethyl)-rhodamine [Compound 19] | 496 nm | 522 nm | 520 nm | – | 0.89 | 3.8 ns | – | 498 nm | ABSORPTION ε ([1]; aqueous buffer at pH 7): 53000 M⁻¹ cm⁻¹; Structures stained in living cells ([2]; 50 μg dye/ml): Dim cellular stain with dots
5′ (6′)-Carboxy-2,7-difluoro-4,5-disulforhodamine [Compound 13] | 490 nm | 514 nm | 517 nm | Nearly no stain visible. | 0.97 | 4.1 ns | 32000 M⁻¹ cm⁻¹ | 502 nm | Structures stained in living cells ([2]; 50 μg dye/ml): Dim cytoplasmatic stain with dots
O=C1OC2(c3cc(F)c(O)cc3Oc3cc(O)c(F)cc32)c2ccccc21 [Compound 8] | – | – | – | – | – | – | – | – | τ ([3]; 20° C.): ^7*τ = 4.1 ns (20° C.).; ε × 10^−4 ([3]; H2O, pH = 9): 8.5^4*; λem ([3]; H2O, pH = 9): 518^4* nm; λmax ([3]; H2O, pH = 9): 492^4* nm
5(6)-carboxyrhodamine 110 [Compound 2] | – | – | – | – | – | – | – | – | ε × 10^−4 ([3]; MeOH): 7.8; λem ([3]; MeOH): 532 nm; λmax ([3]; MeOH): 504 nm
CNc1cc2c(cc1F)C1(OC(=O)c3ccccc31)c1cc(F)c(NC)cc1O2 [Compound 23, 2,7-Difluoro-N,N′-dimethylrhodamine] | 513 nm | 539 nm | 537 nm | Mitochondrial stain visible. Bright | 0.87 | 4.0 ns | 56000 M⁻¹ cm⁻¹ | 511 nm | Structures stained in living cells ([2]; 50 μg dye/ml): Dim cytoplasmatic stain with dots
5(6)-carboxyfluorescein [Compound 7] | – | – | – | – | – | – | – | – | ε × 10^−4 ([3]; H2O, pH = 9): 7.8^4*; λem ([3]; H2O, pH = 9): 517^4* nm; λmax ([3]; H2O, pH = 9): 492^4* nm
Cl.N=c1ccc2c(-c3ccccc3C(=O)O)c3ccc(N)cc3oc-2c1 [Compound 1, rhodamine 110] | – | – | – | – | – | – | – | – | Φfl ([3]; basic EtOH): 0.92; λem ([3]; basic EtOH): 524 nm; ε × 10^−4 ([3]; water, pH = 7): 8.3; λem ([3]; water, pH = 7): 520** nm; λmax ([3]; water, pH = 7): 496 nm
O=C(O)c1ccc2c(c1)C1(OC2=O)c2ccc(NCC(F)(F)F)cc2Oc2cc(NCC(F)(F)F)ccc21 [15 (42-COOH), 5′-Carboxy-N,N′-bis(2,2,2-trifluoroethyl)rhodamine] | 501 nm | 525 nm | 524 nm | – | 0.95 | 4.1 ns | – | 500 nm | ABSORPTION ε ([1]; aqueous buffer at pH 7): 85000 M⁻¹ cm⁻¹; Structures stained in living cells ([2]; 50 μg dye/ml): Dim cytoplasmatic stain with dots; Structures stained in living cells ([2]; 500 μg dye/ml, listed as 42-COOH (15)): Bright cytoplasmatic stain visible.
5′,(6′)-Carboxy-2,7-difluoro-N,N″-bis(2,2,2-trifluoroethyl)-4,5-disulforhodamine [Compound 21] | 509 nm | 533 nm | 541 nm | Cytoplasmatic and mitochondrial | 0.86 | 3.3 ns | 42000 M⁻¹ cm⁻¹ | 517 nm | Structures stained in living cells ([2]; 50 μg dye/ml): Dim cytoplasmatic stain with dots
O=C(O)CSc1c(F)c(F)c(C(=O)O)c(-c2c3cc(F)c(=O)cc-3oc3cc(O)c(F)cc23)c1F [Compound 9] | – | – | – | – | – | – | – | – | bathochromic shift ([3]; compared with compounds 7 and 8): ca. 10 nm; ε × 10^−4 [3, 7]: 8.6; λem [3, 7]: 526 nm; λmax [3, 7]: 506 nm
5′(6′)-Carboxy-2,7-difluoro-N,N′-dimethylrhodamine [Compound 24] | 515^a, 515^b nm | 543 nm | 538 nm | Cellular stain visible; bright | 0.86 | 4.1 ns | 56000 M⁻¹ cm⁻¹ | 515^a, 515^b nm | –
O=C(O)c1ccc2c(c1)C1(OC2=O)c2ccc(NCC(F)(F)F)cc2Oc2cc(NCC(F)(F)F)ccc21 [15 (43-COOH), 6′-carboxy-N,N′-bis(2,2,2-trifluoroethyl)rhodamine] | 501 nm | 523 nm | 522 nm | – | 0.93 | – | – | 497 nm | ABSORPTION ε ([1]; aqueous buffer at pH 7): 88000 M⁻¹ cm⁻¹; Structures stained in living cells ([2]; 500 μg dye/ml, listed as 43-COOH (15)): Nearly no stain visible.
